{"source": "patent US20260102390A1", "about": "“4-(2-(4-((2,4-DIOXOTHIAZOLIDIN-5-YL)METHYL)PHENOXY) DERIVATIVES AS PPARgamma AGONISTS AND AUTOTAXIN INHIBITORS FOR USE IN THE TREATMENT OF FIBROSIS” (Uni-Pharma Kleon Tsetis Pharmaceutical Laboratories S.A., priority 2022, published 2026)", "key": {"ATX": {"target": "ATX (UniProt Q9R1E6)", "assay": "ATX inhibitory activity, Amplex Red method", "assay_type": "biochemical", "conditions": "LPC 16:0 50 μM, two independent experiments, read-out: IC50 against ATX", "experimental": "The inhibition of ATX enzyme activity of the pharmaceutical compound A-1 was measured in vitro by applying the Amplex Red method. Briefly, 2 μL of concentration from 0.001 to 5 μmol/L of derivative […] in DMSO was incubated with 50 μL ATX 8 nM (up to a final concentration of 2 nM and 1 nM for human ATX) and 48 μL of a buffer solution (50 mM Tris-Cl of pH 8.0 and 5 mM CaCl2) for 15 minutes at 37° C. Subsequently, 50 μL of a buffer solution containing 200 μM LPC 16:0 (final concentration 50 μM) was added to the reaction mixture followed by incubation for another 30 minutes at 37° C. Finally, 50 μL of working solution containing 200 μM Amplex Red reagent and choline oxidase (0.2 U/mL) […] HRP (2 U/mL), in 50 mM Tris-HCl at pH 8.0 and 5 mM CaCl2, was added to begin the reaction. The reaction was monitored at 37° C., in a fluorescence plate reader (Tecan Infinite 200) using excitation at 530 nm and reading at 590 nm, every five minutes for 30 minutes at 37° C. The IC50 value was calculated from two independent experiments, using the sigmoid dose-response curve (PrismH software) from the equation f=y0+a/(1+exp(−(x−x0)/b) given from SigmaPlot 11.0."}, "Mouse ATX": {"target": "T1, Mouse ATX (Mus musculus, UniProt Q9R1E6)", "T1 construct": "purchased Sino Biological", "assay": "Mode of inhibition of ATX, modified Amplex assay (Lineweaver-Burk)", "assay_type": "biochemical", "conditions": "inhibitor 1-7.5 μM, LPC 25, 50, 100 μM", "experimental": "To determine the mode of inhibition of ATX by each inhibitor, a modified Amplex assay was employed. In brief, various concentrations of inhibitors (1, 2.5, 5 and 7.5 μM) were tested against various substrate concentrations (LPC 25, 50, 100 μM). Mouse ATX from Sino Biological was used in all mode of inhibition assays. Thereafter, the velocity (V) of the reaction was calculated and the reciprocal of velocity (1/V) was plotted against the reciprocal of substrate concentration (1/S) in Lineweaver-Burk graphs using GraphPad Software (GraphPad Software, San Diego, CA, USA)."}, "choline oxidase": {"test_system": "choline oxidase", "assay": "2nd reaction of the Amplex Red assay (counter-test)", "assay_type": "biochemical", "conditions": "2nd reaction of Amplex Red assay"}, "HRP peroxidase": {"target": "T2, HRP peroxidase (Armoracia rusticana, UniProt P00433)", "T2 sequence (P00433 31-338 limits assumed)": "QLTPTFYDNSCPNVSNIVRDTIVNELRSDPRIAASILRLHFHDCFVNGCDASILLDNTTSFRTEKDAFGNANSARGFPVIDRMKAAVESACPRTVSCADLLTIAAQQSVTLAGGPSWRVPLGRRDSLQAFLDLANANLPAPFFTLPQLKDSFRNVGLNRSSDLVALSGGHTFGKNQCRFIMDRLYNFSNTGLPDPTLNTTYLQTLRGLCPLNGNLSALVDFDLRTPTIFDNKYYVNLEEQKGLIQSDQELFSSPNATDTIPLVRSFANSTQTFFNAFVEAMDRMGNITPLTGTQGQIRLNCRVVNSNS", "assay": "3rd reaction of the Amplex Red assay (counter-test)", "assay_type": "biochemical", "conditions": "3rd reaction of Amplex Red assay"}, "[1]": {"assay": "In vitro absorption assay, membrane permeability", "assay_type": "in vitro ADME", "conditions": "dog, MDCK, MDCKII", "experimental": "The in vitro absorption assay was performed in the kidney MDCKII cell line and involves the permeability from A to B, when A and B are separated by an MDCKII cell membrane. Ideally, a compound should have a high A to B permeability, but a lower B to A permeability in order to be well-absorbed. […] The A-B permeability is much higher than the B-A permeability, thus both compounds are absorbed well in vitro."}, "[2]": {"assay": "In vitro metabolism assay in liver microsomes", "assay_type": "in vitro ADME", "experimental": "The in vitro metabolism assay was performed in liver microsomes. […] This half-live is higher than the ones of known drugs such as imipramine and others, therefore, it seems that A-1 is not quickly cleared from the circulation and, thus, remain available in the circulation for a sufficient period of time."}, "hERG": {"target": "T3, hERG (Homo sapiens, UniProt Q12809)", "T3 construct": "expressed in transfected cells; host or cells: CHO cells", "T3 sequence (Q12809 whole entry)": "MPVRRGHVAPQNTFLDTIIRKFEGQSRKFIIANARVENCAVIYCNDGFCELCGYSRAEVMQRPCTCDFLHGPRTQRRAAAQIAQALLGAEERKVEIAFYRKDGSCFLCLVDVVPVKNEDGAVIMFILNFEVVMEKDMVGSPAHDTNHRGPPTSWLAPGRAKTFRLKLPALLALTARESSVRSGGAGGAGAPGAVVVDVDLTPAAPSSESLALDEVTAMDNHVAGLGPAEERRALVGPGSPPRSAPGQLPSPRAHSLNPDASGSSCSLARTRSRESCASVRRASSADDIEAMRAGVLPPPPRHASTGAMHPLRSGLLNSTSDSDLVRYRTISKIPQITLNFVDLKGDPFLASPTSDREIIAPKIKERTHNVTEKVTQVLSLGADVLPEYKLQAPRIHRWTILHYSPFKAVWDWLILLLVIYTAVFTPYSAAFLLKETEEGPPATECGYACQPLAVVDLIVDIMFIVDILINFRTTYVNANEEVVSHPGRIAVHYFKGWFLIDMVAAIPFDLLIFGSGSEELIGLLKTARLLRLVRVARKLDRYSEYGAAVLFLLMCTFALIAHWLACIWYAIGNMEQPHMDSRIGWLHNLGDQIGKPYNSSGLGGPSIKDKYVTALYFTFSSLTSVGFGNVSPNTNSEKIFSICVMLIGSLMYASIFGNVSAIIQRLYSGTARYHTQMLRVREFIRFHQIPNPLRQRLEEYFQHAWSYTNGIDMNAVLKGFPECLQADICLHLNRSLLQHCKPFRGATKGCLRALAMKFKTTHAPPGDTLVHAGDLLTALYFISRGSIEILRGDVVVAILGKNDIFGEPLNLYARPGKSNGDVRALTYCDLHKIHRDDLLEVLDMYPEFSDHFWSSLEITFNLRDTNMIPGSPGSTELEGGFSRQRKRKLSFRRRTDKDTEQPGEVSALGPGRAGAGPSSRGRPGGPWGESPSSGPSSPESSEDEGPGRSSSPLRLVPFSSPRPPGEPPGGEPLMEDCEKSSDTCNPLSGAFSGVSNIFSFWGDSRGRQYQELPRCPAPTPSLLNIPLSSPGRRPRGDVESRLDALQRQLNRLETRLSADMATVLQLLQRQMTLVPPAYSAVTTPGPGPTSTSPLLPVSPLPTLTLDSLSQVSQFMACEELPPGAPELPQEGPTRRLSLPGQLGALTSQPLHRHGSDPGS", "assay": "Cardiac toxicity assay, hERG inhibition in CHO cells", "assay_type": "cell-based", "conditions": "for cardiotoxicity (conclusion): from hERG assay", "experimental": "The assay of cardiac toxicity is performed on CHO cells that express the human ether-a-go-go related gene (hERG) that encodes the inward rectifying voltage gated potassium channel in the heart, which is involved in cardiac repolarisation. Inhibition of the hERG may cause potentially fatal ventricular tachyarrhythmia."}, "[3]": {"test_system": "BLM-induced pulmonary fibrosis", "assay": "Bleomycin (BLM)-induced pulmonary fibrosis in mice, dosing from one day before BLM", "assay_type": "in vivo, C57Bl6/J mice", "experimental": "10-week-old male wild-type C57Bl6/J animals were administered a saline solution of bleomycin (BLM) directly to the lungs via the orotracheal route. The dose of bleomycin was 0.8 U/kg. […] All animals were monitored daily until the 14th day after the BLM injection when they were killed. […] Serum, broncheoalveolar fluid and lung tissue samples were taken at the end point of the experiment and were used to assess the severity of fibrosis for each animal.\nBlood serum was collected for each animal and levels of ALT and AST transaminases, which are markers of liver damage, were assessed by using an automated biochemical analyzer.\nNext, in the collected broncheoalveolar fluid, the number of cells as well as the total protein concentration were assessed as indicators of inflammation and endothelial penetration, respectively.\nAdditionally, in sections of lung tissue isolated from the animals, fibrosis was assessed after staining with hematoxylin and eosin.\nThe mRNA levels of fibrosis-related genes col1α1 (collagen 1α1) in whole lung RNA samples were also estimated."}, "[4]": {"test_system": "BLM-induced pulmonary fibrosis", "assay": "BLM-induced pulmonary fibrosis in mice, inhalation in therapeutic mode", "assay_type": "in vivo, C57B16/J mice", "conditions": "inhalation 15 mg/Kg twice daily for 7 days, from 7d post BLM", "experimental": "To explore the therapeutic potential of ATX inhibition in pulmonary fibrosis, BLM was administered to 8-10-week-old C57B16/J mice. Subsequently, the pharmaceutical compound A-1 was delivered for 7 days twice daily via inhalation (1 ml of 6.5 mg/ml for 10 mins/6 mice, corresponding to 15 mg/Kg per mouse) to conscious, gently re-strained mice, in a therapeutic mode (7d post BLM)."}, "[5]": {"conditions": "30 mg/kg, 2 doses daily, vs B+V group"}}, "note": "“Also recorded” adds a separate entry of the source."}
{"smiles": "O=C1NC(=O)C(Cc2ccc(OCCN3CCN(C(=O)OCc4cc(Cl)cc(Cl)c4)CC3)cc2)S1", "note": "(centres unmarked) [A-1, 3,5-dichlorobenzyl4-(2-(4-((2,4-dioxothiazolidin-5-yl)methyl)phenoxy)ethyl)piperazine-1-carboxylate]", "values": [{"measurement": "IC50", "setting": "ATX", "value": 190, "unit": "nM"}, {"measurement": "mode of inhibition against ATX", "setting": "Mouse ATX", "value": "non-competitive inhibition"}, {"measurement": "inhibition of choline oxidase", "setting": "choline oxidase", "value": "no inhibition; also recorded: Neither compound showed any detectable inhibition"}, {"measurement": "inhibition of HRP peroxidase", "setting": "HRP peroxidase", "value": "no inhibition; also recorded: Neither compound showed any detectable inhibition"}, {"measurement": "Papp A→B", "setting": "[1]; A to B", "value": 3.7, "unit": "×10⁻⁶ cm/s"}, {"measurement": "Papp B→A", "setting": "[1]; B to A", "value": 0.8, "unit": "×10⁻⁶ cm/s"}, {"measurement": "microsomal CLint", "setting": "[2]; liver microsomes, read-out: Clint (intrinsic clearance)", "value": 329, "unit": "µL/min/mg"}, {"measurement": "half-life", "setting": "[2]; microsomes", "value": 21, "unit": "min"}, {"measurement": "IC50", "setting": "hERG", "value": 12000, "unit": "nM"}, {"measurement": "cardiotoxicity (conclusion)", "setting": "hERG", "value": "not cardiotoxic; also recorded: does not exhibit cardiotoxicity"}, {"measurement": "side effects during the model", "setting": "[3]; 30 mg/kg, 2 doses daily, 14 days post BLM, vs untreated group", "value": "did not suffer any unwanted side effects"}, {"measurement": "fibrotic areas in lung sections, hematoxylin and eosin", "setting": "[3]; [5]", "value": "less fibrotic areas"}, {"measurement": "number of cells in bronchoalveolar fluid", "setting": "[3]; [5]", "value": "reduced number of cells"}, {"measurement": "total protein concentration in bronchoalveolar fluid", "setting": "[3]; [5]", "value": "lower levels"}, {"measurement": "col1α1 mRNA levels in whole lung", "setting": "[3]; 30 mg/kg, 2 doses daily, vs B+V, restored to S+V level", "value": "reduces the mRNA levels (expression) of col1α1 statistically significantly"}, {"measurement": "serum ALT level", "setting": "[3]; 30 mg/kg, 2 doses daily, normal range 28-132 U/L", "value": "normal"}, {"measurement": "serum AST level", "setting": "[3]; 30 mg/kg, 2 doses daily, normal range 59-247 U/L", "value": "normal"}, {"measurement": "liver toxicity / hepatotoxicity (conclusion)", "setting": "[3]; from ALT and AST levels", "value": "does not cause any adverse toxicity to the liver; also recorded: does not exhibit hepatotoxicity"}, {"measurement": "inflammatory cells in BALF", "setting": "[4]", "value": "significantly reduced"}, {"measurement": "lung architecture, H&E staining", "setting": "[4]", "value": "prevented BLM-induced architectural distortion"}, {"measurement": "lung respiratory functions (FlexiVent)", "setting": "[4]", "value": "relative protection"}, {"measurement": "vascular leak and pulmonary edema (total protein concentration in BALF)", "setting": "[4]", "value": "noteworthy decrease"}]}
{"smiles": "O=C1NC(=O)C(Cc2ccc(OCCC3CCN(C(=O)OCc4cc(Cl)cc(Cl)c4)CC3)cc2)S1", "note": "(centres unmarked) [A-3, 3,5-dichlorobenzyl 4-(2-(4-((2,4-dioxothiazolidin-5-yl)methyl)phenoxy)ethyl)piperidine-1-carboxylate]", "values": [{"measurement": "IC50", "setting": "ATX", "value": 30, "unit": "nM"}, {"measurement": "mode of inhibition against ATX", "setting": "Mouse ATX", "value": "non-competitive inhibition"}, {"measurement": "inhibition of choline oxidase", "setting": "choline oxidase", "value": "no inhibition; also recorded: Neither compound showed any detectable inhibition"}, {"measurement": "inhibition of HRP peroxidase", "setting": "HRP peroxidase", "value": "no inhibition; also recorded: Neither compound showed any detectable inhibition"}, {"measurement": "cardiotoxicity (conclusion)", "setting": "hERG", "value": "not cardiotoxic; also recorded: does not exhibit cardiotoxicity"}, {"measurement": "inhibition at 25 µM", "setting": "hERG; human, at 25 μM", "value": 11, "unit": "%"}]}
{"smiles": "Cc1c(C)c2c(c(C)c1O)CCC(C)(COc1ccc(CC3SC(=O)NC3=O)cc1)O2", "note": "(centres unmarked) [TGL, troglitazone, reference compound]", "values": [{"measurement": "IC50", "setting": "ATX", "value": 610, "unit": "nM"}]}
